Numbers after ± are expanded uncertainties.
Tests used:
[1] = xn = mol fraction of the nth substance listed; settings: 101 kPa, Liquid
[2] = refractive index (Na D-line) (dimensionless); xn = mol fraction of the nth substance listed; settings: 101 kPa, Liquid

CCCCCCCC[n+]1ccn(C)c1.F[P-](F)(F)(F)(F)F [1-octyl-3-methylimidazolium hexafluorophosphate] + CCC(C)=O
Settings	mass density, 293.15 K [kg/m3]	mass density, 298.15 K [kg/m3]	mass density, 303.15 K [kg/m3]	refractive index, 293.15 K	refractive index, 298.15 K	refractive index, 303.15 K	speed of sound, 293.15 K [m/s]	speed of sound, 298.15 K [m/s]	speed of sound, 303.15 K [m/s]
[1], x1 = 0.0475	869.8 ± 0.6	864.3 ± 0.6	859.6 ± 0.7	–	–	–	1243 ± 8	1224 ± 8	1195 ± 7
[1], x1 = 0.0972	923.7 ± 0.6	918.9 ± 0.6	914.1 ± 0.6	–	–	–	1268 ± 8	1249 ± 8	1229 ± 8
[1], x1 = 0.1918	1002 ± 0.5	997.6 ± 0.5	993.2 ± 0.5	–	–	–	1303 ± 8	1286 ± 8	1269 ± 8
[1], x1 = 0.2947	1063.1 ± 0.6	1058.8 ± 0.6	1054.6 ± 0.6	–	–	–	1331 ± 8	1315 ± 8	1300 ± 8
[1], x1 = 0.3949	1107.9 ± 0.7	1103.7 ± 0.7	1099.5 ± 0.7	–	–	–	1352 ± 8	1337 ± 8	1323 ± 8
[1], x1 = 0.4983	1143.6 ± 0.7	1139.4 ± 0.7	1135.3 ± 0.7	–	–	–	1368 ± 8	1354 ± 8	1340 ± 8
[1], x1 = 0.5752	1164.9 ± 0.8	1160.9 ± 0.8	1156.9 ± 0.8	–	–	–	1378 ± 8	1364 ± 8	1351 ± 8
[1], x1 = 0.6815	1189.5 ± 0.9	1185.5 ± 0.9	1181.5 ± 0.8	–	–	–	1389 ± 8	1376 ± 8	1363 ± 8
[1], x1 = 0.7683	1205.8 ± 0.9	1202 ± 0.9	1198.3 ± 0.9	–	–	–	1399 ± 8	1386 ± 8	1372 ± 8
[1], x1 = 0.8315	1216.4 ± 0.9	1212.8 ± 0.9	1209.1 ± 0.9	–	–	–	1406 ± 8	1392 ± 8	1379 ± 8
[1], x1 = 0.9315	1230.9 ± 1	1227.5 ± 1	1223.9 ± 1	–	–	–	1425 ± 9	1410 ± 8	1395 ± 8
[1], x1 = 1	1239.6 ± 1.1	1235.7 ± 1	1231.9 ± 1	–	–	–	1424 ± 9	1408 ± 8	1393 ± 8
[2], x1 = 0.0475	–	–	–	1.38881 ± 0.0012	1.38663 ± 0.0012	1.38505 ± 0.0012	–	–	–
[2], x1 = 0.0972	–	–	–	1.39567 ± 0.0012	1.39445 ± 0.0012	1.39284 ± 0.0012	–	–	–
[2], x1 = 0.1918	–	–	–	1.40468 ± 0.0013	1.40289 ± 0.0013	1.40124 ± 0.0013	–	–	–
[2], x1 = 0.2947	–	–	–	1.41058 ± 0.0013	1.40877 ± 0.0013	1.40709 ± 0.0013	–	–	–
[2], x1 = 0.3949	–	–	–	1.41468 ± 0.0013	1.41302 ± 0.0013	1.41133 ± 0.0013	–	–	–
[2], x1 = 0.4983	–	–	–	1.41774 ± 0.0013	1.41614 ± 0.0013	1.41466 ± 0.0013	–	–	–
[2], x1 = 0.5752	–	–	–	1.41934 ± 0.0013	1.41779 ± 0.0013	1.41645 ± 0.0013	–	–	–
[2], x1 = 0.6815	–	–	–	1.42126 ± 0.0013	1.41979 ± 0.0013	1.41825 ± 0.0013	–	–	–
[2], x1 = 0.7683	–	–	–	1.42239 ± 0.0013	1.42095 ± 0.0013	1.41949 ± 0.0013	–	–	–
[2], x1 = 0.8315	–	–	–	1.42355 ± 0.0013	1.42198 ± 0.0013	1.42051 ± 0.0013	–	–	–
[2], x1 = 0.9315	–	–	–	1.42474 ± 0.0013	1.42337 ± 0.0013	1.42199 ± 0.0013	–	–	–
[2], x1 = 1	–	–	–	1.4244 ± 0.0013	1.42302 ± 0.0013	1.42165 ± 0.0013	–	–	–

CCC(C)=O [butanone] + CCCCCCCC[n+]1ccn(C)c1.F[P-](F)(F)(F)(F)F
x2 = 0
Settings	mass density, 293.15 K [kg/m3]	mass density, 298.15 K [kg/m3]	mass density, 303.15 K [kg/m3]	refractive index, 293.15 K	refractive index, 298.15 K	refractive index, 303.15 K	speed of sound, 293.15 K [m/s]	speed of sound, 298.15 K [m/s]	speed of sound, 303.15 K [m/s]
[1]	805.6 ± 0.7	799.7 ± 0.7	794.9 ± 0.8	–	–	–	1212 ± 8	1192 ± 7	1163 ± 7
[2]	–	–	–	1.37879 ± 0.0012	1.37618 ± 0.0012	1.37355 ± 0.0012	–	–	–

C1CCCCC1 [cyclohexane] + CCC(C)=O
x1 = 1
Settings	refractive index, 293.15 K	refractive index, 298.15 K	refractive index, 303.15 K	speed of sound, 293.15 K [m/s]	speed of sound, 298.15 K [m/s]	speed of sound, 303.15 K [m/s]
[1], Sing-around technique in a fixed-path interferometer	–	–	–	1279 ± 2	1256 ± 2	1219 ± 2
[2], Standard Abbe refractometry	1.42633 ± 0.00031	1.42354 ± 0.00031	1.42073 ± 0.00031	–	–	–

[1], x1 = 1
Settings	mass density [kg/m3]
293.15 K	778.4 ± 0.5
298.15 K	773.8 ± 0.5
303.15 K	769 ± 0.5
